From patent US20040220148A1, “5-Membered ring heterocycles as inhibitors of leucocyte adhesion and as VLA-4 antagonists” (Aventis Pharma Deutschland GmbH, priority 1996, published 2004) come the findings set out here.

Structures can show the parent of a compound that is named as a salt.

This assay deals with T1, VLA-4 integrins on human U937 cells (interaction between VCAM-1 and VLA-4) (Homo sapiens, UniProt P05556+P13612).
T1 construct: the VLA-4 integrins, are offered in their natural form as surface molecules on human U937 cells; host or cells: U937 cells (VLA-4, endogenous); the partner hVCAM-1(1-3)-IgG came from the supernatant of transfected COS cells (ATCC CRL1651)
T1 sequence (P13612 34-1032): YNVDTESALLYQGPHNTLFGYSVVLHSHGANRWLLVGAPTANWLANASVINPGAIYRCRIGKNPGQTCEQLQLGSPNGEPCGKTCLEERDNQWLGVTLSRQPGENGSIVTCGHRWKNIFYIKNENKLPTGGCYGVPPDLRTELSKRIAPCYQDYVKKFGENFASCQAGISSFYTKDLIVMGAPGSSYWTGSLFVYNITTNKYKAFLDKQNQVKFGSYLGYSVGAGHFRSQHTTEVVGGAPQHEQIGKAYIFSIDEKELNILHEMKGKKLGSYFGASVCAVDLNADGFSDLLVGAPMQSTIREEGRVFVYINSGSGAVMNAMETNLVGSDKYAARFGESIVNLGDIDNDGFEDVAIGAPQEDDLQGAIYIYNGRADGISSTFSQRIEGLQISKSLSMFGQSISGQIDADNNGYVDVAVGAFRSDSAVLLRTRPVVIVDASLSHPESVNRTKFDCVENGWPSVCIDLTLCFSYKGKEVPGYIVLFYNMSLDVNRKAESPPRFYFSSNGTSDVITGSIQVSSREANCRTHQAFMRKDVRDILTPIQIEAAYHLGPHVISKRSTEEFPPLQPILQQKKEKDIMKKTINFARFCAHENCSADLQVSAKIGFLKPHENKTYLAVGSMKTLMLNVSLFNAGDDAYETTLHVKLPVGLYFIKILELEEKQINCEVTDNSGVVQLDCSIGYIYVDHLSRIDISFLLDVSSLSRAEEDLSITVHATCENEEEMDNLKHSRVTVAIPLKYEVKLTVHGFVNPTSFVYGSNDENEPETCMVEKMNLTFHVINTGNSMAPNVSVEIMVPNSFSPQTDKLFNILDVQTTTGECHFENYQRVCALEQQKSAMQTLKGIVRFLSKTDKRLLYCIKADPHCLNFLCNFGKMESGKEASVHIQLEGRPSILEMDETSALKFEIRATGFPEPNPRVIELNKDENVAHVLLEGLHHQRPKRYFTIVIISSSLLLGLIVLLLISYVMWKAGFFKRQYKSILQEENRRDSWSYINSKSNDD
T1 sequence (P05556 21-798): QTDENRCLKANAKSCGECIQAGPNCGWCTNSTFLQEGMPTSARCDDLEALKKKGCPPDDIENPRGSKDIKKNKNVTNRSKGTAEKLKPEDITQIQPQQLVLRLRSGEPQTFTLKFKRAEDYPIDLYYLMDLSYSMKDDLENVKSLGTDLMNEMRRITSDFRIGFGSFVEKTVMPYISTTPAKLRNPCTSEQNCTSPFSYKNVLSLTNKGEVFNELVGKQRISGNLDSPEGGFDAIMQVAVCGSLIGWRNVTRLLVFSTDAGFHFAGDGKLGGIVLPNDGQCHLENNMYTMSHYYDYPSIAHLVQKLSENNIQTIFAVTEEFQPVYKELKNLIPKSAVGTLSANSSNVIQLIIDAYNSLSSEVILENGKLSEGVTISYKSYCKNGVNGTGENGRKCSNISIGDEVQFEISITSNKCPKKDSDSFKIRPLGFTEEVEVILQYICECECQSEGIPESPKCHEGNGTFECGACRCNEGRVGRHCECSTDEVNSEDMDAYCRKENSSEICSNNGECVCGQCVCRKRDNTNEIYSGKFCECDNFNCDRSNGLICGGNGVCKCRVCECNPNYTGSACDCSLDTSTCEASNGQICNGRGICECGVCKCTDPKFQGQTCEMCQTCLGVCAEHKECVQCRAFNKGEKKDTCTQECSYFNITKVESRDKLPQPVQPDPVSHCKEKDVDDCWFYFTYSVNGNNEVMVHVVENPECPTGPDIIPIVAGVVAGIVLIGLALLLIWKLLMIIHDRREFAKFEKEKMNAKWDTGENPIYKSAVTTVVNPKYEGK
The experiment in a line: U937/VCAM-1 cell adhesion test (adhesion of U937 cells to hVCAM-1(1-3)-IgG). The assay is classed as cell-based. Conditions: concentration leading to 50% inhibition of adhesion. The text has this:
As a test method for the activity of the compounds of the formula I on the interaction between VCAM-1 and VLA-4, an assay which is specific for this interaction is used. The cellular binding components, i.e. the VLA-4 integrins, are offered in their natural form as surface molecules on human U937 cells (ATCC CRL 1593) which belong to the group of leucocytes. As specific binding components, recombinant soluble fusion proteins prepared by genetic engineering and consisting of the extracytoplasmic domains of human VCAM-1 and the constant region of a human immunoglobulin of the subclass IgG1 are used.
Assay for the Measurement of the Adhesion of U937 Cells (ATCC CRL 1593) to hVCAM-1 (1-3)-IgG
1. Preparation of Human VCAM-1(1-3)-IgG and Human CD4-IgG
A genetic construct for the expression of the extracellular domains of human VCAM-1 was employed, associated with the genetic sequence of the heavy chain of human immunoglobulin IgG1 (hinge, CH2 and CH3 regions), from Dr. Brian Seed, Massachusetts General Hospital, Boston, USA. The soluble fusion protein hVCAM-1(1-3)-IgG contained the three amino-terminal extracellular immunoglobulin-like domains of human VCAM-1 (Damle and Aruffo, Proc. Natl. Acad. Sci. USA 1991, 88, 6403). CD4-IgG (Zettlmeissl et al, DNA and Cell Biology 1990, 9, 347) served as a fusion protein for negative controls. The recombinant proteins were expressed as soluble proteins after DEAE/dextran-mediated DNA-transfection in COS cells (ATCC CRL1651) according to standard procedures (Ausubel et al., Current protocols in molecular biology, John Wiley & Sons, Inc., 1994).
2. Assay for Measurement of the Adhesion of U937 Cells to hVCAM-1(1-3)-IgG
2.1 96-well microtiter test plates (Nunc Maxisorb) were incubated at room temperature for 1 hour with 100 μl/well of a goat-anti-human IgG antibody solution (10 μg/ml in 50 mM tris, pH 9.5). After removing the antibody solution, washing was carried out once with PBS.
2.2 150 μl/well of a blocking buffer (1% BSA in PBS) were incubated on the plates at room temperature for 0.5 hours. After removing the blocking buffer, washing was carried out once with PBS.
2.3 100 μl per well of a cell culture supernatant of transfected COS cells were incubated on the plates at room temperature for 1.5 hours. The COS cells were transfected with a plasmid which codes for the three N-terminal immunoglobulin-like domains of VCAM-1, coupled to the Fc part of human IgG1 (hVCAM-1(1-3)-IgG). The content of hVCAM-1 (1-3)-IgG was about […]. After removing the culture supernatant, washing was carried out once with PBS.
2.4 The plates were incubated at room temperature for 20 minutes with […] of Fc receptor blocking buffer (1 mg/ml of γ-globulin, 100 mM NaCl, 100 μM MgCl2, 100 μM MnCl2, 100 μM CaCl2, 1 mg/ml BSA in 50 mM HEPES, pH 7.5). After removing the Fc receptor blocking buffer, washing was carried out once with PBS.
2.5 20 μl of binding buffer (100 mM NaCl, 100 μM MgCl2, 100 μM MgCl2, 100 μM CaCl2, 1 mg/ml BSA in 50 mM HEPES, pH 7.5), were initially introduced, the substances to be tested were added in 10 μl of binding buffer and the mixture was incubated for 20 minutes. As controls, antibodies against VCAM-1 (BBT, No. BBA6) and against VLA-4
(Immunotech, No. 0764) were used.
2.6 U937 cells were incubated in Fc receptor blocking buffer for 20 minutes and then pipetted in at a concentration of 1×10^6/ml and in an amount of 100 μl per well ([…]).
2.7 The plates were slowly immersed at an angle of 45° in stop buffer (100 mM NaCl, 100 μM MgCl2, 100 μM MnCl2, 100 μM CaCl2 in 25 mM Tris, pH 7.5) and shaken off. The process was repeated.
2.8 50 μl/well of a dye solution (16.7 μg/ml of Hoechst dye 33258, 4% formaldehyde, 0.5% Triton X-100 in PBS) were then incubated on the plates for 15 minutes.
2.9 The plates were shaken off and slowly immersed at an angle of 45° in stop buffer (100 mM NaCl, 100 μM MgCl2, 100 μM MnCl2, 100 μM CaCl2 in 25 mM Tris, pH 7.5). The process was repeated. […]
In turn, `CC1(c2ccc(C(=N)N)cc2)C(=O)N(CC(=O)N[C@@H](CC(=O)O)C(=O)N[C@H](C(=O)O)c2ccccc2)C(=O)N1Cc1ccc(C(F)(F)F)cc1` (mixture of isomers) [Example 15, ((R,S)-4-(4-(Amino-imino-methyl)phenyl)-3-(4-trifluoromethylbenzyl)-4-methyl-2,5-dioxoimidazolidin-1-yl)acetyl-L-aspartyl-L-phenylglycine] came in with an IC50 of 32 µM. In other words, the double-digit micromolar range.
Then `CC1(c2ccc(C(=N)N)cc2)C(=O)N(CC(=O)N[C@@H](CC(=O)O)C(=O)N[C@H](C(=O)O)c2ccccc2)C(=O)N1Cc1cc(C(F)(F)F)cc(C(F)(F)F)c1` (mixture of isomers) [Example 16, ((R,S)-4-(4-(Amino-imino-methyl)phenyl)-3-(3,5-bis(trifluoromethyl)benzyl)4-methyl-2,5-dioxoimidazolidin-1-yl)acetyl-L-aspartyl-L-phenylglycine], with 30 µM.
For `Cc1c(C)c(C)c(CN2C(=O)N(CC(=O)N[C@@H](CC(=O)O)C(=O)N[C@H](C(=O)O)c3ccccc3)C(=O)C2(C)c2ccc(C(=N)N)cc2)c(C)c1C` (mixture of isomers) [Example 17, ((R,S)-4-(4-(Amino-imino-methyl)phenyl)-3-(pentamethylbenzyl)-4-methyl-2,5-dioxoimidazolidin-1-yl)acetyl-L-aspartyl-L-phenylglycine], half-maximal inhibition (IC50) required 79 µM.
`CN(C(=O)CN1C(=O)N(Cc2ccccc2)C(C)(c2ccc(C(=N)N)cc2)C1=O)[C@@H](CC(=O)O)C(=O)N[C@H](C(=O)O)c1ccccc1` (mixture of isomers) [Example 19, ((R,S)-4-(4-(Amino-imino-methyl)phenyl)-3-benzyl-4-methyl-2,5-dioxo-imidazolidin-1-yl)acetyl-L-N-methyl-aspartyl-L-phenylglycine] yielded an IC50 of 0.2 µM.
`COC(=O)[C@@H](NC(=O)[C@H](CC(=O)O)NC(=O)CN1C(=O)N(Cc2ccccc2)C(C)(c2ccc(C(=N)N)cc2)C1=O)c1ccccc1` (mixture of isomers) [Example 25, ((R,S)-4-(4-(Amino-imino-methyl)phenyl)-3-benzyl-4-methyl-2,5-dioxo-imidazolidin-1-yl)acetyl-L-aspartyl-L-phenylglycine methyl ester] registered an IC50 of 22 µM. This IC50 lies about 110-fold higher than the previous one.
Then `CC1(c2ccc(C(=N)N)cc2)C(=O)N(CC(=O)NCCC(=O)O)C(=O)N1Cc1ccccc1` (racemic) [Example 34, 3-(((R,S)-4-(4-(Amino-imino-methyl)phenyl)-3-benzyl-4-methyl-2,5-dioxoimidazolidin-1-yl)acetylamino)propionic acid hydrochloride], with 175 µM.
The result for `CC1(c2ccc(C(=N)N)cc2)NC(=O)N(CC(=O)N[C@@H](CC(=O)O)C(=O)N[C@H](C(=O)O)c2ccccc2)C1=O` (stereo partly drawn) [Example 1, ((R,S)-4-(4-(Amino-imino-methyl)phenyl)-4-methyl-2,5-dioxoimidazolidin-1-yl)acetyl-L-aspartyl-L-phenylglycine] reads 140 µM; that for `CN1C(=O)N(CC(=O)N[C@@H](CC(=O)O)C(=O)N[C@H](C(=O)O)c2ccccc2)C(=O)C1(C)c1ccc(C(=N)N)cc1` (stereo partly drawn) [Example 2, ((R,S)-4-(4-(Amino-imino-methyl)phenyl)-3,4-dimethyl-2,5-dioxo-imidazolidin-1-yl)acetyl-L-aspartyl-L-phenylglycine], 15 µM.
The result for `CC1(c2ccc(C(=N)N)cc2)C(=O)N(CC(=O)N[C@@H](CC(=O)O)C(=O)N[C@H](C(=O)O)c2ccccc2)C(=O)N1Cc1ccccc1` (stereo partly drawn) [Example 4, ((R,S)-4-(4-(Amino-imino-methyl)phenyl)-3-benzyl-4-methyl-2,5-dioxoimidazolidin-1-yl)acetyl-L-aspartyl-L-phenylglycine] reads 1.1 µM.
In the case of `C[C@@]1(c2ccc(C(=N)N)cc2)C(=O)N(CC(=O)N[C@@H](CC(=O)O)C(=O)N[C@H](C(=O)O)c2ccccc2)C(=O)N1Cc1ccc2ccccc2c1` [Example 9, ((R,S)-4-(4-(Amino-imino-methyl)phenyl)-3-((2-naphthyl)methyl)-4-methyl-2,5-dioxoimidazolidin-1-yl)acetyl-L-aspartyl-L-phenylglycine], the half-maximal inhibitory concentration (IC50) is 0.5 µM.

What is called IC50 is the concentration at which inhibition is half-maximal.
